Laboratory results taken from patent publication US20250090729A1, “Methods and Products to Detect, Minimize and Treat TRAP-Related Tissue Reactions and Tissue Injury Associated With Medical Devices” (priority 2022, published 2025).
“Also recorded” adds a separate entry of the source.

Experiments:
human neutrophils = assay: In vitro TRAP formation by human blood neutrophils (PMNs) cultured with test agents; assay type: cell-based; conditions: for TRAP formation in human neutrophils: FIG. 12, human blood neutrophils cultured with agent; for TRAP formation at higher dilution than 1/5: PMNs; for TRAP formation at 1/5 dilution: PMNs of 3 donors, 4 hr timeline, vs negative control
Method: From left to right and top to bottom (A)-(F), media only (A) and PMA (B), a known inducer of TRAPS in human neutrophils, present positive control.
PMA=phorbol myristate acetate; Insulin is Humalog (Lilly); LPS is a bacterial endotoxin (known inducers of TRAPs.
Green color (light color in grayscale) indicates the existence of TRAPs. In each slide set, the upper left slide is the control with media only. The upper right slide is Humalog insulin in media at 1/5 dilution (0.6 mg m-cresol/ml, with 0.6 mg/ml of insulin), PMA concentrations are in ng/ml and the lower right slide is m-cresol at 1/5 dilution (0.6 mg/ml of m-cresol). In this study, the media was RPMI 1640 (phenol free).
In these examples, human blood neutrophils were placed in a culture dish+/−sensors in vitro. […] Brightfield refers to the use of non-fluorescent white light (78a). […] In FIG. 79, neutrophils were added to tissue culture dishes that contained a sensor (commercial type #1) to see if the sensor could directly trigger neutrophil death and TRAP release which we detect with fluorescent dyes like sytox green. FIG. 79a-c had no neutrophils added to the sensors. In FIG. 79d-f neutrophils were added. The sytox green binds to DNA, and fluoresces green in color photo, or white in black and white photos. […] “Merged” refers to photos in which the non-fluorescent (brightfield) and fluorescent photos are merged into a single photo FIG. 79c.

porcine skin = assay: In vivo TRAP formation at infusion/injection sites in swine skin (H&E histology); conditions: infused continuously over a 5- to 7-day period
Description: The presence of the purple web appearance is indicated by the black arrows.
White area in the center of the image is the previous location of the injection port.

Cc1cccc(O)c1 [m-cresol]
TRAP formation in human neutrophils (human neutrophils): trigger TRAP formation
TRAPs from 120 minutes to 150 minutes (human neutrophils; FIGS. 60E-60F, 1/5 dilution (0.6 mg/ml m-cresol)): significant increase in the presence of TRAPs
number and size of TRAPs from 180 minutes to 240 minutes (human neutrophils; FIGS. 60G-60I, 1/5 dilution): remained relatively stable
TRAP formation at higher dilution than 1/5 (human neutrophils): weak to no TRAP formation
TRAP formation at 1/5 dilution (human neutrophils): strong
TRAPS in swine tissue (porcine skin): presence of TRAPS

CNc1ccc2oc(C[C@H]3O[C@@]4(CC[C@H]3C)O[C@H]([C@H](C)C(=O)c3ccc[nH]3)[C@H](C)C[C@H]4C)nc2c1C(=O)O [A23187, calcimycin]
TRAPs in neutrophils, positive control (human neutrophils; FIG. 77 d-f, human neutrophils in culture dish): triggers TRAPs

Oc1ccccc1 [phenol]
TRAP formation in human neutrophils (human neutrophils): trigger TRAP formation
TRAP formation at higher dilution than 1/5 (human neutrophils): weak to no TRAP formation
TRAP formation at 1/5 dilution (human neutrophils): triggered TRAP formation
TRAP formation at 1/5 dilution (human neutrophils; listed as Phenol): strong traps

CCCCCCCCCCCCCC(=O)O[C@@H]1[C@@H](C)[C@@]2(O)[C@@H](C=C(CO)C[C@]3(O)C(=O)C(C)=C[C@@H]23)[C@@H]2C(C)(C)[C@]12OC(C)=O [PMA, phorbol myristate acetate]
TRAPs at 30 minutes (human neutrophils; FIG. 60B, human PMNs, RPMI 1640): presence of TRAPs
TRAPs at 60 minutes (human neutrophils; FIG. 60C, Humalog insulin 1/5 dilution): significant TRAPs
TRAP formation in PMNs of 3 donors (human neutrophils; dilution not specified, positive controls and insulin fibrils lacking PP): trigger TRAP formation; also recorded: triggered TRAPs
time after exposure until TRAPs are triggered (human neutrophils; human PMNs, commercial insulin and m-cresol at 1/5 dilution): ≤ 60 min
